Counter-ions that a name gives are not always drawn. Like-named read-outs stand apart in the source and are kept apart here.

Consider 33 molecules from patent EP1144368B1, “ACETYLENIC ALPHA-AMINO ACID-BASED SULFONAMIDE HYDROXAMIC ACID TACE INHIBITORS” (priority 1999, dated 2000).

The assay has as its system THP-1 cells. As to the kind of experiment: THP-1 Soluble Protein Assay (LPS-stimulated; ELISA of TNF-a, TNF-R p75/80, TNF-R p55/60, IL-8). The class given is cell-based, human. To be noted: Homo sapiens. (In general: In an ELISA, binding on a coated surface is turned into a signal by an enzyme label.)
[1] abbreviates: THP-1, read-out: THP % inhibition @ 3 µM, 3 µM.
[2] abbreviates: THP-1, 3 µM, read-out: THP % Inhibition @ 3µM.
[3] abbreviates: THP-1, read-out: THP % inhibition @ 3 µM.

Protocol: Each vial of cells are cultured for about two weeks prior to being used for an assay and then are used for only 4 to 6 weeks to screen compounds.
Plates are placed into an incubator set at 5% CO2 and at 37° C. After 4 hours of incubation, 300 ml/well of tissue culture supernatant (TCS) is removed for use in an TNF-a ELISA.
Percent change in each soluble protein evaluated from the "vehicle positive control" was calculated for each compound concentration with the following formula: % Change =(pg/ml (compound) - pg/ml (veh pos control))/(pg/ml (veh pos control) - pg/ml (veh neg control))x 100 [formula]
For the soluble protein (TNF-a, p75/80, p55/60, IL-8) studies under stimulated conditions, the mean pg/ml of duplicate wells were determined and the results expressed as percent change from "vehicle positive control".

On to `CC#CCOc1ccc(S(=O)(=O)N2CCSC3(CCN(Cc4ccccc4)CC3)C2C(=O)NO)cc1` (stereo not drawn) [Example 241, 9-Benzyl-4-{[4-(2-butynyloxy)phenyl]sulfonyl}-N-hydroxy-1-thia-4,9-diazaspiro[5.5]undecane-5-carboxamide], for which the inhibition (commonly the relative decrease from the control value, in per cent) at 3 µM under setting [1] was 94%.

For `CC#CCOc1ccc(S(=O)(=O)N2CCNCC2C(=O)NO)cc1` (stereo not drawn) [Example 214, 1-(4-But-2-ynyloxy-benzenesulfonyl)-piperazine-2-carboxylic acidhydroxyamide], the inhibition at 3 µM under setting [1] was determined as 71%.

On to `CC#CCOc1ccc(S(=O)(=O)N2CCN(C(=O)C3(C)COC(C)(C)OC3)CC2C(=O)NO)cc1` (stereo not drawn) [Example 231, 1-{[4-(2-Butynyloxy)phenyl]sulfonyl}-N-hydroxy-4-[(2,2,5-trimethyl-1,3-dioxan-5-yl)carbonyl)-2-piperazinecarboxamide], for which, under setting [1], the inhibition at 3 µM was 73%.

With `CC#CCOc1ccc(S(=O)(=O)N(C)C(C(=O)NO)C(C)(C)SCCCN2CCOCC2)cc1` (stereo not drawn) [Example 146], under setting [1], the inhibition at 3 µM was determined as 84%.

On to `CC#CCOc1ccc(S(=O)(=O)N(CC#CCNC)C(C(=O)NO)C(C)C)cc1` (stereo not drawn) [Example 127, 2-{{[4-(2-Butynyloxy)phenyl]sulfonyl}[4-(methylamino)-2-butynyl]amino}-N-hydroxy-3-methylbutanamide], for which, under setting [1], the inhibition at 3 µM is 83%.

For the molecule `CC1(C)SCCN(S(=O)(=O)c2ccc(OCC#CCCCN)cc2)[C@H]1C(=O)NO` [Example 251, (3S)-4-({4-[(6-Amino-2-hexynyl)oxy]phenyl}sulfonyl)-N-hydroxy-2,2-dimethyl-3-thiomorpholine carboxamide], under setting [1], the inhibition at 3 µM was 22%.

Turning to `CC#CCOc1ccc(S(=O)(=O)N2C[C@H](CC(=O)OC(C)(C)C)SC(C)(C)[C@@H]2C(=O)NO)cc1` [Example 277, tert-Butyl{(2S,5S)-4-{[4-(2-butynyloxy)phenyl]sulfonyl}-5-[(hydroxyamino)carbonyl]-6,6-dimethylthiomorpholinyl}acetate], the inhibition at 3 µM under setting [2] was found to be 69%.

Take `C#CCN(C(C(=O)NO)C(C)C)S(=O)(=O)c1ccc(OCC#CC)cc1` (stereo not drawn) [Example 109, 2-[{[4-(2-Butynyloxy)phenyl]sulfonyl}(2-propynyl)amino]-N-hydroxy-3-methylbutanamide]: the inhibition at 3 µM under setting [1] came out at 85%.

In the case of `CC#CCOc1ccc(S(=O)(=O)N(C)C(C(=O)NO)c2ccc(OCCCNS(C)(=O)=O)cc2)cc1` (stereo not drawn) [Example 197, 2-[{[4-(2-Butynyloxy)phenyl]sulfonyl}(methyl)amino]-N-hydroxy-2-(4-{3-[(methylsulfonyl)amino]propoxy}phenyl)acetamide], the inhibition at 3 µM under setting [1] is 94%.

As for `CC#CCOc1ccc(S(=O)(=O)N(C)C(C(=O)NO)c2ccc(OCCNC)cc2)cc1` (stereo not drawn) [Example 192, 2-({[4-(2-Butynyloxy)phenyl]sulfonyl}(methyl)amino)-N-hydroxy-2-{4-[2-(methylamino)ethoxy]phenyl}acetamide], the inhibition at 3 µM under setting [1] was determined as 95%.

Turning to `CC#CCOc1ccc(S(=O)(=O)NC(C(=O)NO)c2ccc(O)cc2)cc1` (stereo not drawn) [Example 176, 2-({[4-(2-Butynyloxy)phenyl]sulfonyl}amino)-N-hydroxy-2-(4-hydroxyphenyl)acetamide], the inhibition at 3 µM under setting [1] was determined as 89%.

As for `CC#CCOc1ccc(S(=O)(=O)NC(C(=O)NO)c2ccc(OCCN(C)C(=O)OC(C)(C)C)cc2)cc1` (stereo not drawn) [Example 203, tert-Butyl 4-(2-{4-[1-({[4-{2-butynyloxy)phenyl]sulfonyl}amino)-2-(hydroxyamino)-2-oxoethyl)phenoxy]ethyl)-(methyl)carbamate], under setting [1], the inhibition at 3 µM amounted to 73%.

With `CC#CCOc1ccc(S(=O)(=O)N(C)C(C(=O)NO)c2ccc(Cl)cc2)cc1` (stereo not drawn) [Example 212, 2-[{[4-(2-Butynyloxy)phenyl]sulfonyl}(methyl)amino]-2-(4-chlorophenyl)-N-hydroxyacetamide], the inhibition at 3 µM under setting [1] was determined as 86%.

As for `CC#CCOc1ccc(S(=O)(=O)N(CCN2CCOCC2)C(C(=O)NO)C(C)C)cc1` (stereo not drawn) [Example 123, 2-[[[4-(2-Butynyloxy)phenyl]sulfonyl][2-(4-morpholinyl)ethyl]amino]-N-hydroxy-3-methylbutanamide], the inhibition at 3 µM under setting [1] turned out to be 35%.

Take `CC#CCOc1ccc(S(=O)(=O)N2C[C@@H](CN)SC(C)(C)[C@@H]2C(=O)NO)cc1` [Example 275, (3S,6R)-Trans-6-(aminomethyl)-4-{[4-(2-butynyloxy)phenyl]sulfonyl}-N-hydroxy-2,2-dimethyl-3-thiomorpholinecarboxamide hydrochloride]: the inhibition at 3 µM under setting [2] was 82%.

As for `CC#CCOc1ccc(S(=O)(=O)N2CCN(C(C)=O)CC2C(=O)NO)cc1` (stereo not drawn) [Example 224, 4-Acetyl-1-(4-but-2-ynyloxy-benzenesulfonyl)-piperazine-2-carboxylic acid hydroxyamide], the inhibition at 3 µM under setting [1] was 81%.

As to `CC#CCOc1ccc(S(=O)(=O)N[C@@H](C(=O)NO)c2ccc(OCCNC(=O)OC(C)(C)C)cc2)cc1` [Example 199, tert-Butyl 2-{4-[(1R)-1-({[4-(2-butynyloxy)phenyl]sulfonyl}amino)-2-(hydroxyamino)-2-oxoethyl]phenoxy}ethylcarbamate], under setting [1], the inhibition at 3 µM worked out at 84%.

As to `CC(C)(C)OC(=O)NCCCCC#CCOc1ccc(S(=O)(=O)N2CCSC(C)(C)[C@@H]2C(=O)NO)cc1` [Example 252, tert-Butyl 7-[4-({(3S)-3-[(hydroxyamino)carbonyl]-2,2-dimethylthiomorpholinyl}sulfonyl)phenoxy]-5-heptynylcarbamate], the inhibition at 3 µM under setting [1] was determined as 70%.

Regarding `CC#CCOc1ccc(S(=O)(=O)N2CCN(C(=O)OC)CC2C(=O)NO)cc1` (stereo not drawn) [Example 228, 4-(4-But-2-ynyloxy-benzenesulfonyl)-3-hydroxycarbamoyl-piperazine-1-carboxylic acid methyl ester], the inhibition at 3 µM under setting [1] was found to be 81%.

For `CC1(C)SCCN(S(=O)(=O)c2ccc(OCC#CCCCOC3CCCCO3)cc2)C1C(=O)NO` (stereo not drawn) [Example 248, N-Hydroxy-2,2-dimethyl-4-[(4-{[6-(tetrahydro-2H-pyran-2-yloxy)-2-hexynyl]oxy}phenyl)sulfonyl]-3-thiomorpholine carboxamide], under setting [1], the inhibition at 3 µM stood at 21%.

With `CC#CCOc1ccc(S(=O)(=O)N(CC#CCN2CCN(C)CC2)C(C(=O)NO)C(C)C)cc1` (stereo not drawn) [Example 125, 2-{{[4-(2-Butynyloxy)phenyl]sulfonyl}[4-(4-methyl-1-piperazinyl)-2-butynyl]amino}-N-hydroxy-3-methylbutanamide], the inhibition at 3 µM under setting [1] amounted to 72%.

`CC#CCOc1ccc(S(=O)(=O)N2CCN(C(=O)Nc3ccc(F)cc3)CC2C(=O)NO)cc1` (stereo not drawn) [Example 222, 4-{[4-(2-Butynyloxy)phenyl]sulfonyl}-N-1-(4-fluorophenyl)-N-3-hydroxy-1,3-piperazinedicarboxamide]: the inhibition at 3 µM under setting [1] amounted to 61%.

Consider `CC#CCOc1ccc(S(=O)(=O)N(C)C(C(=O)NO)C(C)(C)SCCN2CCOCC2)cc1` (stereo not drawn) [Example 140, 2-({[4-(2-Butynyloxy)phenyl]sulfonyl)(methyl)amino]-N-hydroxy-3 methyl-3-[(2(4-morpholinylethyl)sulfanyl]-butanamide hydrochloride], for which, under setting [1], the inhibition at 3 µM stood at 80%.

For `CC#CCOc1ccc(S(=O)(=O)N(CC)C(C(=O)NO)C(C)C)cc1` (stereo not drawn) [Example 108, 2-[(4-But-2-ynyloxy-benzenesulfonyl)-ethyl-amino]-N-hydroxy-3-methyl-butyramide], under setting [1], the inhibition at 3 µM came out at 76%.

Turning to `CC#CCOc1ccc(S(=O)(=O)N2CCSC3(CCN(C)CC3)C2C(=O)NO)cc1` (stereo not drawn) [Example 242, 9-methyl-4-{[4-(2-butynyloxy)phenyl]sulfonyl}-N-hydroxy-1-thia-4,9-diazaspiro[5.5]undecane-5-carboxamide], under setting [1], the inhibition at 3 µM came out at 73%.

Take `CC1(C)SCCN(S(=O)(=O)c2ccc(OCC#CCO)cc2)[C@H]1C(=O)NO` [Example 260, (3S)-N-Hydroxy-4-({4-[(4-hydroxy-2-butynyl)oxy]phenyl}sulfonyl)-2,2-dimethyl-3-thiomorpholine carboxamide]: the inhibition at 3 µM under setting [3] is 95%.

For `C#CC#CCOc1ccc(S(=O)(=O)N2CCSC(C)(C)[C@@H]2C(=O)NO)cc1` [Example 263, (3S)-N-Hydroxy-2,2-dimethyl-4-{[4-(2,4-pentadiynyloxy)phenyl]sulfonyl}-3-thiomorpholine carboxamide], the inhibition at 3 µM under setting [1] turned out to be 88%.

As to `CC#CCOc1ccc(S(=O)(=O)N(C)C(C(=O)NO)c2ccc(OCCN3CCOCC3)cc2)cc1` (stereo not drawn) [Example 179, 2-[{[4-(2-Butynyloxy)phenyl]sulfonyl}(methyl)amino]-N-hydroxy-2-{4-[2-(4-morpholinyl)ethoxy]phenyl}acetamide], under setting [1], the inhibition at 3 µM was determined as 97%.

Take `CC1(C)SCCN(S(=O)(=O)c2ccc(OCC#CCCN)cc2)C1C(=O)NO` (stereo not drawn) [Example 246, 4-({4-[(5-Amino-2-pentynyl)oxy]phenyl}sulfonyl)-N-hydroxy-2,2-dimethyl-3-thiomorpholine carboxamide]: under setting [1], the inhibition at 3 µM amounted to 4%.

Regarding `CC#CCOc1ccc(S(=O)(=O)N2CCN(Cc3ccc(Br)cc3)CC2C(=O)NO)cc1` (stereo not drawn) [Example 233, 4-(4-Bromo-benzyl)-1-(4-but-2-ynyloxy-benzenesulfonyl)-piperazine-2-carboxylic acid hydroxyamide], the inhibition at 3 µM under setting [1] came to 33%.

For the molecule `CC1(C)SCCN(S(=O)(=O)c2ccc(OCC#CCO)cc2)C1C(=O)NO` (stereo not drawn) [Example 61, 4-[4-(4-Hydroxy-but-2-ynyloxy)-benzenesulfonyl]-2,2-dimethyl-thiomorpholine-3-carboxylic acid hydroxyamide], the inhibition at 3 µM under setting [3] is 89%.

Consider `CC#CCOc1ccc(S(=O)(=O)N2CCCS(=O)(=O)C[C@@H]2C(=O)NO)cc1` [Example 175], for which, under setting [2], the inhibition at 3 µM stood at 83%.

As to `CC#CCOc1ccc(S(=O)(=O)N2C[C@H](CC(=O)N(C)C)SC(C)(C)[C@@H]2C(=O)NO)cc1` [Example 281, (3S,6S)-4-{[4-(2-Butynyloxy)phenyl]sulfonyl}-6-[2-(dimethylamino)-2-oxoethyl]-N-hydroxy-2,2-dimethyl-3-thiomorpholinecarboxamide], the inhibition at 3 µM under setting [2] is 76%.
